The values that follow come from ChEMBL document CHEMBL2073943, “Effect of the flavonoids biochanin A and silymarin on the P-glycoprotein-mediated transport of digoxin and vinblastine in human intestinal Caco-2 cells” (Pharm Res, 2003).

Type in all cases: functional, cell-based
Data set [1] deals with T1, ATP-dependent translocase ABCB1 (Homo sapiens, UniProt P08183). Description: TP_TRANSPORTER: increase in digoxin intracellular accumulation (digoxin: 11nM, biochanin A: 150 uM) in Caco-2 cells. To be noted: caco-2, 150 µM.
T1 sequence (P08183 whole entry): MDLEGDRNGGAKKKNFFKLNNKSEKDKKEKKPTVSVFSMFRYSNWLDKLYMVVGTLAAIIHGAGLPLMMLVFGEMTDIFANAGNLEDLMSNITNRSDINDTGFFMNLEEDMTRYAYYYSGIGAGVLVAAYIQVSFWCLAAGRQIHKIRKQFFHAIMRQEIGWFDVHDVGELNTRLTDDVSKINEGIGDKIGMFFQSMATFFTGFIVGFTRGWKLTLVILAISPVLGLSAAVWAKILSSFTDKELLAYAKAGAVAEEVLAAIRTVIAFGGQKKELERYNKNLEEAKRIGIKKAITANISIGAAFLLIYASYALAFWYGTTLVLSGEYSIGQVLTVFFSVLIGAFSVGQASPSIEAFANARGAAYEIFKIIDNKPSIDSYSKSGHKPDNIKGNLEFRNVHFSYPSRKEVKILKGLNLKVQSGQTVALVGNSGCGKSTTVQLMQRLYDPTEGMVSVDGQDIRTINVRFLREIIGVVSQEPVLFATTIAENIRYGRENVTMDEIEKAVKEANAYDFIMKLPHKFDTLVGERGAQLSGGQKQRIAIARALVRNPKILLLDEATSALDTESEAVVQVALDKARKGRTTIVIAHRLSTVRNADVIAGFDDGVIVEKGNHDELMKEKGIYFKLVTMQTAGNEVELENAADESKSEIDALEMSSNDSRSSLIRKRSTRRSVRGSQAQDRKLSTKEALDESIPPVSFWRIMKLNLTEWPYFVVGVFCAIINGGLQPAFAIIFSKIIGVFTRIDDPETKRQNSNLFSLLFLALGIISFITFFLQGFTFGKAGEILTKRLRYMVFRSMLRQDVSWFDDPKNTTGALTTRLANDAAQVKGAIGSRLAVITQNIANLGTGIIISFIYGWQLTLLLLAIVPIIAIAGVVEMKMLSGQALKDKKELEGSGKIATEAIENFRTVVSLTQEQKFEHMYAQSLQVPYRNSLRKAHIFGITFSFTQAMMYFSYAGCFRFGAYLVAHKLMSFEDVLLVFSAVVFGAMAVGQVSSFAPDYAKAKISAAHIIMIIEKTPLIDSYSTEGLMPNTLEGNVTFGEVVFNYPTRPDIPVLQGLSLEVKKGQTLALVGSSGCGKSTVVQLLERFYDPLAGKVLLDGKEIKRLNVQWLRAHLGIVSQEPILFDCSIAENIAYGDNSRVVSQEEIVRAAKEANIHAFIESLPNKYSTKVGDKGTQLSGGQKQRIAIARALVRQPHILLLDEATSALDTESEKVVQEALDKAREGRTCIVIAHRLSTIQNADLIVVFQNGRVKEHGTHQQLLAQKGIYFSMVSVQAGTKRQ
Data set [2] concerns the target T1, ATP-dependent translocase ABCB1. In words: TP_TRANSPORTER: increase in […] intracellular accumulation (VBL: 27nM, biochanin A: 150 uM) in Caco-2 cells. The following applies: caco-2, 150 µM.
Data set [3] shares this target. Description: TP_TRANSPORTER: increase in digoxin intracellular accumulation (digoxin: 11nM, silymarin: 100 uM) in Caco-2 cells. The following applies: caco-2, 100 µM.
Data set [4] has the same target. Description: TP_TRANSPORTER: increase in […] intracellular accumulation (VBL: 27nM, silymarin: 100 uM) in Caco-2 cells. The following applies: caco-2, 100 µM.

Consider `COc1ccc(-c2coc3cc(O)cc(O)c3c2=O)cc1` [BIOCHANIN], for which the Activity result in data set [1] and in data set [2] was “inhibitor [+]” in each case.
With SILYMARIN, the Activity entry in data set [3] and in data set [4] was “inhibitor [+]” each time.
